Test results from ChEMBL document CHEMBL1201862, “PubChem BioAssay data set” (2004).
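Each compound was tested at five concentrations against cells in 96-well plates for 48 hours. GI50 is the concentration that inhibits growth by half.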 Activity calls are given as the source filed them. Rule as the data show it: active = GI50 up to about 1.1 µM and inactive = higher.

Columns and labels:
Assay in all cases: NCI anticancer screen, dose series, 48 h
U-251 = system: U-251
OVCAR-3 = system: OVCAR-3
M14 = system: M14
SN12C = system: SN12C
COLO 205 = system: COLO 205
K562 = system: K562
KM12 = system: KM12
SK-OV-3 = system: SK-OV-3
MOLT-4 = system: MOLT-4
SF-295 = system: SF-295
786-0 = system: 786-0
SK-MEL-28 = system: SK-MEL-28
HT-29 = system: HT-29
IGROV-1 = system: IGROV-1
EKVX = system: EKVX
SK-MEL-2 = system: SK-MEL-2

Measured: GI50

CC1CC#CCOC(=O)CCCC1=O (configuration not stated)
inactive: U-251 > 100 µM | OVCAR-3 > 100 µM | M14 > 100 µM | SN12C > 100 µM | COLO 205 > 100 µM | K562 > 100 µM | KM12 > 100 µM | SK-OV-3 > 100 µM | MOLT-4 > 100 µM | SF-295 > 100 µM | 786-0 > 100 µM | SK-MEL-28 > 100 µM | HT-29 > 100 µM | IGROV-1 > 100 µM

CC1(C)CCCC2(C)[C@@H]1CC[C@@]13CC(=O)[C@@](C)(CC[C@@H]21)C3 (some centres not stated)
inactive: U-251 49 µM | OVCAR-3 > 100 µM | M14 94.6 µM | SN12C 93.5 µM | COLO 205 > 100 µM | K562 > 100 µM | KM12 80.5 µM | SK-OV-3 > 100 µM | MOLT-4 57.4 µM | SF-295 > 100 µM | 786-0 > 100 µM | SK-MEL-28 > 100 µM | HT-29 30 µM | IGROV-1 > 100 µM

Cc1cccc(O)c(=O)c1
inactive: U-251 21.4 µM | OVCAR-3 11.6 µM | M14 31.8 µM | SN12C 37.8 µM | COLO 205 6.24 µM | KM12 20.3 µM | EKVX 23.6 µM | SK-OV-3 > 100 µM | MOLT-4 6.38 µM | SF-295 39.7 µM | 786-0 9.12 µM | SK-MEL-28 49.4 µM | HT-29 19 µM | IGROV-1 37.4 µM

O=C(O)c1ccc2c(c1)C(=O)N(c1ccc(S(=O)(=O)c3ccc(N4C(=O)c5ccc(C(=O)O)cc5C4=O)cc3)cc1)C2=O
inactive: SK-MEL-2 > 100 µM | U-251 > 100 µM | OVCAR-3 > 100 µM | M14 > 100 µM | SN12C > 100 µM | COLO 205 > 100 µM | K562 > 100 µM | KM12 > 100 µM | EKVX > 100 µM | SK-OV-3 > 100 µM | MOLT-4 > 100 µM | SF-295 > 100 µM | 786-0 > 100 µM | SK-MEL-28 > 100 µM | HT-29 > 100 µM

CS(=O)(=O)NNS(=O)(=O)c1ccc(Br)cc1
inactive: SK-MEL-2 > 100 µM | U-251 > 100 µM | M14 > 100 µM | COLO 205 > 100 µM | K562 > 100 µM | EKVX > 100 µM | SK-OV-3 > 100 µM | 786-0 > 100 µM | SK-MEL-28 > 100 µM | HT-29 > 100 µM | IGROV-1 > 100 µM

C/C(=N/NS(=O)(=O)c1ccc(C)cc1)c1cccc[n+]1[O-]
inactive: U-251 > 100 µM | OVCAR-3 > 100 µM | M14 > 100 µM | SN12C > 100 µM | KM12 > 100 µM | EKVX > 100 µM | SK-OV-3 > 100 µM | MOLT-4 > 100 µM | SF-295 > 100 µM | 786-0 > 100 µM | SK-MEL-28 > 100 µM | HT-29 > 100 µM | IGROV-1 > 100 µM

CSC(C1c2ccccc2N(C)C2=NC(=O)N(C)C(=O)C21Cl)S(=O)(=O)c1ccc(C)cc1 (configuration not stated)
inactive: SK-MEL-2 33 µM | U-251 > 100 µM | OVCAR-3 18.9 µM | SN12C 50.4 µM | COLO 205 40.2 µM | K562 16.7 µM | KM12 60.5 µM | EKVX 94.4 µM | SK-OV-3 > 100 µM | MOLT-4 17.5 µM | SF-295 33.6 µM | 786-0 18.8 µM | SK-MEL-28 25 µM | HT-29 34.1 µM | IGROV-1 > 100 µM

COP12(OC)NC(=O)OC1(C(F)(F)F)c1ccccc1O2 (configuration not stated)
inactive: SK-MEL-2 > 100 µM | OVCAR-3 > 100 µM | M14 > 100 µM | SN12C > 100 µM | K562 > 100 µM | KM12 > 100 µM | SK-OV-3 > 100 µM | MOLT-4 > 100 µM | SF-295 > 100 µM | 786-0 > 100 µM | SK-MEL-28 > 100 µM | HT-29 > 100 µM | IGROV-1 > 100 µM

CC(=O)OCC1OC(n2cccnc2=O)C(OC(C)=O)C1OC(C)=O (configuration not stated)
inactive: SK-MEL-2 > 100 µM | U-251 > 100 µM | OVCAR-3 > 100 µM | M14 > 100 µM | SN12C > 100 µM | COLO 205 > 100 µM | K562 > 100 µM | KM12 > 100 µM | EKVX > 100 µM | SK-OV-3 > 100 µM | MOLT-4 > 100 µM | 786-0 > 100 µM | SK-MEL-28 > 100 µM | HT-29 > 100 µM

OC12c3ccccc3C1(N1CCOCC1)CCCCC21OCCCO1 (configuration not stated)
inactive: SK-MEL-2 > 100 µM | U-251 > 100 µM | OVCAR-3 > 100 µM | M14 > 100 µM | SN12C > 100 µM | COLO 205 > 100 µM | K562 > 100 µM | KM12 > 100 µM | SK-OV-3 > 100 µM | MOLT-4 > 100 µM | SF-295 > 100 µM | 786-0 > 100 µM | SK-MEL-28 > 100 µM | HT-29 > 100 µM | IGROV-1 > 100 µM

COc1cc2ccnc(-c3c4ccccc4c(N)c4c(OC)c(OC)ccc34)c2cc1OC
inactive: SK-MEL-2 4.86 µM | U-251 3.37 µM | SN12C 3.47 µM | COLO 205 1.58 µM | K562 1.55 µM | KM12 2.38 µM | EKVX 10.4 µM | SK-OV-3 7.13 µM | MOLT-4 1.49 µM | SF-295 3.18 µM | 786-0 2.65 µM | SK-MEL-28 2.36 µM | HT-29 2.64 µM | IGROV-1 3.24 µM

CCn1c(=O)nc2n(-c3ccc(SC)cc3)c3ccccc3nc-2c1=O
inactive: SK-MEL-2 > 100 µM | U-251 > 100 µM | OVCAR-3 24.6 µM | M14 > 100 µM | SN12C > 100 µM | COLO 205 8.15 µM | K562 > 100 µM | KM12 > 100 µM | EKVX > 100 µM | SK-OV-3 > 100 µM | MOLT-4 > 100 µM | SF-295 > 100 µM | 786-0 > 100 µM | SK-MEL-28 > 100 µM | IGROV-1 > 100 µM

COc1cc(C(=O)C/C(CCC(=O)Nc2ccccc2[N+](=O)[O-])=N\NC(=O)C(N)=O)ccc1O
inactive: SK-MEL-2 > 100 µM | U-251 > 100 µM | OVCAR-3 > 100 µM | M14 > 100 µM | COLO 205 > 100 µM | K562 > 100 µM | KM12 > 100 µM | EKVX > 100 µM | SK-OV-3 > 100 µM | MOLT-4 > 100 µM | SF-295 > 100 µM | 786-0 > 100 µM | SK-MEL-28 > 100 µM | HT-29 > 100 µM | IGROV-1 > 100 µM

Cc1cc(C)c(C(=O)c2no[n+]([O-])c2C(=O)c2c(C)cc(C)c(Br)c2C)c(C)c1Br
inactive: SK-MEL-2 14.1 µM | U-251 12.5 µM | OVCAR-3 13.6 µM | M14 11.8 µM | SN12C 14.2 µM | COLO 205 16.8 µM | KM12 13.6 µM | EKVX 12 µM | SK-OV-3 20.7 µM | MOLT-4 4.65 µM | SF-295 16.9 µM | 786-0 15.1 µM | SK-MEL-28 14.4 µM | HT-29 12.3 µM | IGROV-1 6.15 µM
